This is an account of results in PubChem BioAssay (NCI).

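Interpolation was linear, between the two tested concentrations surrounding the appropriate level; five concentrations were tested over 48 hours in 96-well plates. GI50 = concentration required for 50% inhibition of growth. TGI marks complete inhibition of growth.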

Among the test systems are HCC-2998 colon; SNB-19 CNS; MDA-MB-435; SF-268 CNS; SR leukemia; NCI-H460 lung; SK-MEL-2 melanoma; CCRF-CEM leukemia; UO-31 renal; SK-OV-3 ovarian; EKVX NSCLC.
Holding throughout (assay): DTP human tumour cell line panel, 48 h

Broadly, the TGI is the concentration giving total growth inhibition. As for `O=C1Oc2ccccc2C1C/C(=N\Nc1ccccc1)c1ccccc1O` (centres undefined), the TGI with HCC-2998 colon was > 100 µM; in the experiment on SNB-19 CNS, > 100 µM; with MDA-MB-435 it was 76.2 µM; in the experiment with SF-268 CNS, > 100 µM; in the experiment with SR leukemia it was 58.1 µM; with NCI-H460 lung, > 100 µM. Moreover, the total growth inhibition concentration (TGI) is > 100 µM with SK-MEL-2 melanoma; > 100 µM in the experiment with CCRF-CEM leukemia; 77.6 µM in the experiment on UO-31 renal; > 100 µM in the experiment on SK-OV-3 ovarian; > 100 µM in the experiment on EKVX NSCLC.

`CCN(CC)CCCNc1c2c(Cl)cc(Cl)cc2nc2nc(=O)[nH]c(C)c12`: the TGI was 51 µM in the experiment on HCC-2998 colon; 44.3 µM in the experiment on SNB-19 CNS; 49.2 µM in the experiment with MDA-MB-435; 52.5 µM in the experiment with SF-268 CNS; > 10 µM with SR leukemia; 37.1 µM in the experiment on NCI-H460 lung. Further, the TGI is > 100 µM in the experiment with SK-MEL-2 melanoma; > 100 µM in the experiment with CCRF-CEM leukemia; > 100 µM in the experiment on UO-31 renal; 58 µM with SK-OV-3 ovarian; > 100 µM in the experiment on EKVX NSCLC.

Consider `CC1(C)C2CCC3CC(CCC#N)CCC3C21C#N` (centres undefined), for which the TGI with HCC-2998 colon, in the experiment with SNB-19 CNS, with MDA-MB-435, in the experiment with SF-268 CNS, in the experiment with SR leukemia and with NCI-H460 lung was > 100 µM in each case. In addition, the TGI in the experiment with SK-MEL-2 melanoma, in the experiment on CCRF-CEM leukemia, with UO-31 renal, with SK-OV-3 ovarian and with EKVX NSCLC was > 100 µM in each case.

As for `COc1ccc(Nc2nc3ccccc3n3cccc23)cc1OC`, the TGI in the experiment on HCC-2998 colon was 27.6 µM; in the experiment on SNB-19 CNS it was > 100 µM; in the experiment on MDA-MB-435, 26.7 µM; in the experiment on SF-268 CNS, 53.3 µM; in the experiment on SR leukemia, 37.7 µM; with NCI-H460 lung it was 27.5 µM. Besides, the TGI with SK-MEL-2 melanoma was 33.3 µM; with CCRF-CEM leukemia it was 15.2 µM; with UO-31 renal, 39.2 µM; in the experiment with SK-OV-3 ovarian, 63.5 µM; in the experiment with EKVX NSCLC it was 68.5 µM.

Regarding `CN(C)c1ccc(/C=C/C(=O)c2ccc(O)cc2)cc1`, the TGI was 38.1 µM with HCC-2998 colon; > 100 µM in the experiment with SNB-19 CNS; 3.22 µM in the experiment on MDA-MB-435; > 100 µM in the experiment on SF-268 CNS; 3.02 µM with SR leukemia; 22.8 µM in the experiment on NCI-H460 lung. Also, the concentration for total growth inhibition (TGI) with SK-MEL-2 melanoma was > 49.1 µM; in the experiment with CCRF-CEM leukemia, 17.4 µM; in the experiment with UO-31 renal, > 100 µM; with SK-OV-3 ovarian, 61.9 µM; in the experiment on EKVX NSCLC, > 100 µM.

In the case of `COc1ccc(C2c3cc4c(cc3OC(NNc3ccccc3)C2C)OCO4)cc1` (centres undefined), the concentration for total growth inhibition (TGI) in the experiment on HCC-2998 colon was 4.79 µM; in the experiment on SNB-19 CNS it was > 100 µM; with MDA-MB-435, > 100 µM; in the experiment on SF-268 CNS, > 100 µM; in the experiment with SR leukemia, 16.3 µM; in the experiment with NCI-H460 lung, > 100 µM. Moreover, the total growth inhibition concentration (TGI) with SK-MEL-2 melanoma was 98.1 µM; in the experiment on CCRF-CEM leukemia it was 40.5 µM; in the experiment on UO-31 renal, > 100 µM; in the experiment with SK-OV-3 ovarian, > 100 µM; with EKVX NSCLC it was 24.3 µM.

As for `Clc1ccc(Cl)c(N=Nc2cc3c4c(c2)CCN4CCC3)c1`, the total growth inhibition concentration (TGI) with HCC-2998 colon, in the experiment on SNB-19 CNS, with MDA-MB-435, in the experiment with SF-268 CNS, in the experiment with SR leukemia and in the experiment on NCI-H460 lung was > 10 µM in each case. In addition, the total growth inhibition concentration (TGI) in the experiment on SK-MEL-2 melanoma, in the experiment with CCRF-CEM leukemia, in the experiment with UO-31 renal, with SK-OV-3 ovarian and in the experiment on EKVX NSCLC was > 10 µM in each case.

In the case of `COC(=O)C(CC(C)C)NC(=O)C(NC(=O)c1ccc(-c2ccc(Cl)cc2Cl)o1)C(C)C` (centres undefined), the total growth inhibition concentration (TGI) in the experiment with HCC-2998 colon was 31.7 µM; in the experiment on SNB-19 CNS, > 100 µM; in the experiment with MDA-MB-435, > 100 µM; with SF-268 CNS it was 56.6 µM; in the experiment on SR leukemia, > 100 µM; in the experiment with NCI-H460 lung it was 34.2 µM. Moreover, the total growth inhibition concentration (TGI) in the experiment on SK-MEL-2 melanoma is 63.2 µM; in the experiment with CCRF-CEM leukemia, 33.2 µM; in the experiment on UO-31 renal it was 61.2 µM; with SK-OV-3 ovarian, > 100 µM; with EKVX NSCLC, 62.6 µM.

`O=C(CNc1ccccn1)Nn1cnc2ccc(S(=O)(=O)Nc3ccccn3)cc2c1=O`: the TGI in the experiment with HCC-2998 colon, in the experiment with SNB-19 CNS, in the experiment with MDA-MB-435, with SF-268 CNS, in the experiment on SR leukemia and in the experiment with NCI-H460 lung was > 100 µM each time. Moreover, the TGI in the experiment with SK-MEL-2 melanoma, in the experiment with CCRF-CEM leukemia, in the experiment with UO-31 renal, in the experiment on SK-OV-3 ovarian and in the experiment on EKVX NSCLC was > 100 µM each time.

The term GI50 denotes the concentration that inhibits growth by half. Consider `COC1(CC[C@@H](C)COC2OC(CO)C(O)C(O)C2O)O[C@H]2C[C@H]3[C@@H]4CC=C5C[C@@H](OC6OC(CO)C(OC7OC(C)C(O)C(O)C7O)C(O)C6OC6OC(C)C(O)C(O)C6O)CC[C@]5(C)[C@H]4CC[C@]3(C)[C@H]2[C@@H]1C` (some centres undefined), for which the GI50 is 2.97 µM with HCC-2998 colon; 2.46 µM with SNB-19 CNS; 2.38 µM with SF-268 CNS; 2.96 µM with SR leukemia; 1.62 µM in the experiment on NCI-H460 lung; 3.26 µM in the experiment on SK-MEL-2 melanoma. Moreover, the GI50 in the experiment on CCRF-CEM leukemia is 7.6 µM; with UO-31 renal, 1.69 µM; with EKVX NSCLC it was 10 µM. Besides, the total growth inhibition concentration (TGI) with HCC-2998 colon is 8.5 µM; with SNB-19 CNS it was 6.54 µM; with MDA-MB-435, 4.18 µM; in the experiment on SF-268 CNS, 6.76 µM; with NCI-H460 lung, 5.43 µM; in the experiment with SK-MEL-2 melanoma it was 8.5 µM. Besides, the TGI amounted to 20.2 µM in the experiment on CCRF-CEM leukemia, 5.2 µM with UO-31 renal, 3.09 µM in the experiment on SK-OV-3 ovarian and 33.3 µM in the experiment with EKVX NSCLC.

Take `CCCCOCCOCCOC1=CC(=O)c2c(O)ccc(O)c2C1=O`: the total growth inhibition concentration (TGI) is 3.25 µM with HCC-2998 colon; 3.19 µM in the experiment with SNB-19 CNS; 0.356 µM in the experiment with MDA-MB-435; > 10 µM with SF-268 CNS; > 10 µM in the experiment with SR leukemia; 3.69 µM in the experiment with NCI-H460 lung. For the same compound, the TGI was 3.52 µM in the experiment on SK-MEL-2 melanoma; 6.01 µM in the experiment with CCRF-CEM leukemia; 2.93 µM in the experiment on UO-31 renal; > 10 µM with SK-OV-3 ovarian; > 10 µM in the experiment on EKVX NSCLC.
